In PMC8102066 (eLife, 2021):
Where “and” joins values, the source holds several entries; their conditions need not be identical. Equal entries are not always repeated. Where two headings read alike, the source gives them in different places.

Experiments:
[1] = molecular target: T1, mGluR2-C121A-3xTM4-I779A (Rattus norvegicus, UniProt P31421, A677S/A681F/A685G/C121A/I779A); assay: SiMPull subunit counting in the presence of ligands; settings: SNAP-mGluR2-C121A-3xTM4-I779A in presence of the ligand; single replicates per experiment day
T1 construct: expressed in transfected cells; host or cells: HEK 293 T (detergent lysate, pulled down by anti-HA antibody)

[2] = molecular target: T2, mGluR2-C121A-I779A (Rattus norvegicus, UniProt P31421, C121A/I779A); assay: as above; settings: SNAP-mGluR2-C121A-I779A in presence of the ligand; single replicates per experiment day
T2 construct: expressed in transfected cells; host or cells: HEK 293 T (detergent lysate, pulled down by anti-HA antibody)

[3] = molecular target: T3, mGluR3 (Rattus norvegicus, UniProt P31422); assay: GIRK channel whole cell patch clamp in HEK 293 T cells; settings: for GIRK current amplitude: mGluR3
[4] = molecular target: mGluR3-F690A (Rattus norvegicus, UniProt P31422, F690A); assay: Calcium imaging in HEK 293 T cells; settings: for Calcium response amplitude: mGluR3-F681A
[5] = molecular target: mGluR3-S686A (Rattus norvegicus, UniProt P31422, S686A); assay: Calcium imaging in HEK 293 T cells
[6] = molecular target: mGluR2-3xTM4 (Rattus norvegicus, UniProt P31421, A677S/A681F/A685G); assay: GIRK channel whole cell patch clamp in HEK 293 T cells
[7] = molecular target: T4, mGluR2-I779W (Rattus norvegicus, UniProt P31421, I779W); assay: Calcium imaging in HEK 293 T cells; type: cell-based; parameters: scale not given here
T4 construct: we performed calcium imaging experiments with mutations in the full-length mGluR2 background; expressed in transfected cells; host or cells: HEK 293 T
Protocol: Approximately 30 ROIs were analyzed per movie.

[8] = molecular target: mGluR2 (Rattus norvegicus, UniProt P31421); assay: Inter-LBD FRET (N-terminal SNAP-tags), live cells; settings: mGluR2, inter-LBD FRET
[9] = molecular target: T3, mGluR3; assay: Calcium imaging (G protein chimera, GCaMP6f) in HEK 293 T cells
[10] = molecular target: mGluR3-3xTM4 (Rattus norvegicus, UniProt P31422, F690A/G694A/INS669ASEIGTGFPFDPHYVEVLGERMHYVDVGPRDGTPVLFLHGNPTSSYVWRNIIPHVAPTHRCIAPDLIGMGKSDKPDLGYFFDDHVRFMDAFIEALGLEEVVLVIHDWGSALGFHWAKRNPERVKGIAFMEFIRPIPTWDEWPEFARETFQAFRTTDVGRKLIIDQNVFIEGTLPMGVVRPLTEVEMDHYREPFLNPVDREPLWRFPNELPIAGEPANIVALVEEYMDWLHQSPVPKLLFWGTPGVLIPPAEAARLAKSLPNCKAVDIGPGLNLLQEDNPDLIGSEIARWLSTLEISGLE/S686A); assay: Inter-TMD FRET sensor (HaloTag in ICL2), live cells; settings: for FRET response amplitude: mGluR3-3xTM4, inter-TMD FRET
[11] = molecular target: T5, mGluR2-C121A (Rattus norvegicus, UniProt P31421, C121A); assay: SiMPull subunit counting in the presence of ligands; settings: SNAP-mGluR2-C121A in presence of the ligand; single replicates per experiment day
T5 construct: expressed in transfected cells; host or cells: HEK 293 T (detergent lysate, pulled down by anti-HA antibody)

[12] = molecular target: mGluR3-3xTM4 (Rattus norvegicus, UniProt P31422, F690A/G694A/S686A); assay: Inter-LBD FRET (N-terminal SNAP-tags), live cells; settings: for FRET response amplitude: mGluR3-3xTM4, inter-LBD FRET
[13] = molecular target: T6, mGluR2-C121A-3xTM4 (Rattus norvegicus, UniProt P31421, A677S/A681F/A685G/C121A); assay: SiMPull subunit counting in the presence of ligands
T6 construct: expressed in transfected cells; host or cells: HEK 293 T (detergent lysate, pulled down by anti-HA antibody)

[14] = molecular target: mGluR3-C127A-I788A (Rattus norvegicus, UniProt P31422, C127A/I788A); assay: as above
[15] = read-out: Glutamate EC50, calcium imaging, normalized to saturating (1 mM) glutamate

Chain of mGluR3-C127A-I788A (P31422 23-879 C127A/I788A): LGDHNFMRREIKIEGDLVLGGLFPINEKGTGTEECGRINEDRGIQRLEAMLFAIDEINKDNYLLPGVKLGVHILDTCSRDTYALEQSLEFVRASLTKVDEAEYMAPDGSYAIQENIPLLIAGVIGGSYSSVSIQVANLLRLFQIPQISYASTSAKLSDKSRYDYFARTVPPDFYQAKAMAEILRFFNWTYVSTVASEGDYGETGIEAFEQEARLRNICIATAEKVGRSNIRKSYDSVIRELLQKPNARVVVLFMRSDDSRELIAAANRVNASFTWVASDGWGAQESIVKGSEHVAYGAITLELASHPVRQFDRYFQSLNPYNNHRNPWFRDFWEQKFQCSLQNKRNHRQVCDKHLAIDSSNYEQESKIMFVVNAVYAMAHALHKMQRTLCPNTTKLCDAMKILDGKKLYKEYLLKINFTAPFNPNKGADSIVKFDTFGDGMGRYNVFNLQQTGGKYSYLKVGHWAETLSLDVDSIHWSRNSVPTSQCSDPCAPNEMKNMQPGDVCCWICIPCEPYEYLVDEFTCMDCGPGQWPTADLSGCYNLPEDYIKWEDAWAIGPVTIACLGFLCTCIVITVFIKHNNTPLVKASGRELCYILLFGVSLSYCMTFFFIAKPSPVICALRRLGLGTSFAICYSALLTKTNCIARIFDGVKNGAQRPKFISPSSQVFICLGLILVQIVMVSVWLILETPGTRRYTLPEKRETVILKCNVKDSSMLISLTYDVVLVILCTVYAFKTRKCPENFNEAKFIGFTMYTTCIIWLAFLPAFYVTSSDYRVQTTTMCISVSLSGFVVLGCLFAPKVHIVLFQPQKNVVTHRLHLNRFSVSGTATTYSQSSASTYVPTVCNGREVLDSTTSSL
T1 sequence (P31421 19-872 C121A/A677S/A681F/A685G/I779A): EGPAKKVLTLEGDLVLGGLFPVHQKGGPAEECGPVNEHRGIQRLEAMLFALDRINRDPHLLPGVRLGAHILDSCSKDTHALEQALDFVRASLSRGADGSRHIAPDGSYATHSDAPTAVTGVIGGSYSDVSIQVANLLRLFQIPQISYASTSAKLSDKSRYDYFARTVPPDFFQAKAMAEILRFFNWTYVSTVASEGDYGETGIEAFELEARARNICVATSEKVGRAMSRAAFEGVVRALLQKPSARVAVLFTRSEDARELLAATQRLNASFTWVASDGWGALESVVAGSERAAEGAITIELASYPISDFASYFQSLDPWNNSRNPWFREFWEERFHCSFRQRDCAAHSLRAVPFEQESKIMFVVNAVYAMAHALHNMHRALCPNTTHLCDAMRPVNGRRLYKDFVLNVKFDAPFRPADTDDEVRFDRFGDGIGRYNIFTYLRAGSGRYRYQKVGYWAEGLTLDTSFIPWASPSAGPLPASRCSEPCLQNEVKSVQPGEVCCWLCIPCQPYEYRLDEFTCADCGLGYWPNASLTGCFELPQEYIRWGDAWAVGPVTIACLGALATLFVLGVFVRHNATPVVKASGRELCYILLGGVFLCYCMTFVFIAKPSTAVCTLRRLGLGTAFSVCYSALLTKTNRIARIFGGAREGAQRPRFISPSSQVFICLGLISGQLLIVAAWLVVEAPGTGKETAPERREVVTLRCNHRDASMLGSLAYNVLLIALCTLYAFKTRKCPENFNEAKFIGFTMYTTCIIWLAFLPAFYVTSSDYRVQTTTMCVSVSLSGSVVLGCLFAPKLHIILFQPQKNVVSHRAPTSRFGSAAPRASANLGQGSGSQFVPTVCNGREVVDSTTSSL
Chain of mGluR3-F690A (P31422 23-879 F690A): as the sequence (P31422 23-879 C127A/I788A) above, with A105C, F668A, A766I counted along it
T5 sequence (P31421 19-872 C121A): as the sequence (P31421 19-872 C121A/A677S/A681F/A685G/I779A) above, with S659A, F663A, G667A, A761I counted along it
Chain of mGluR3-3xTM4 (Rattus norvegicus, UniProt P31422, F690A/G694A/S686A) (P31422 23-879 S686A/F690A/G694A): as the sequence (P31422 23-879 C127A/I788A) above, with A105C, S664A, F668A, G672A, A766I counted along it
Chain of UniProt P31422 (P31422 with tags, fused parts or gaps with the stated changes): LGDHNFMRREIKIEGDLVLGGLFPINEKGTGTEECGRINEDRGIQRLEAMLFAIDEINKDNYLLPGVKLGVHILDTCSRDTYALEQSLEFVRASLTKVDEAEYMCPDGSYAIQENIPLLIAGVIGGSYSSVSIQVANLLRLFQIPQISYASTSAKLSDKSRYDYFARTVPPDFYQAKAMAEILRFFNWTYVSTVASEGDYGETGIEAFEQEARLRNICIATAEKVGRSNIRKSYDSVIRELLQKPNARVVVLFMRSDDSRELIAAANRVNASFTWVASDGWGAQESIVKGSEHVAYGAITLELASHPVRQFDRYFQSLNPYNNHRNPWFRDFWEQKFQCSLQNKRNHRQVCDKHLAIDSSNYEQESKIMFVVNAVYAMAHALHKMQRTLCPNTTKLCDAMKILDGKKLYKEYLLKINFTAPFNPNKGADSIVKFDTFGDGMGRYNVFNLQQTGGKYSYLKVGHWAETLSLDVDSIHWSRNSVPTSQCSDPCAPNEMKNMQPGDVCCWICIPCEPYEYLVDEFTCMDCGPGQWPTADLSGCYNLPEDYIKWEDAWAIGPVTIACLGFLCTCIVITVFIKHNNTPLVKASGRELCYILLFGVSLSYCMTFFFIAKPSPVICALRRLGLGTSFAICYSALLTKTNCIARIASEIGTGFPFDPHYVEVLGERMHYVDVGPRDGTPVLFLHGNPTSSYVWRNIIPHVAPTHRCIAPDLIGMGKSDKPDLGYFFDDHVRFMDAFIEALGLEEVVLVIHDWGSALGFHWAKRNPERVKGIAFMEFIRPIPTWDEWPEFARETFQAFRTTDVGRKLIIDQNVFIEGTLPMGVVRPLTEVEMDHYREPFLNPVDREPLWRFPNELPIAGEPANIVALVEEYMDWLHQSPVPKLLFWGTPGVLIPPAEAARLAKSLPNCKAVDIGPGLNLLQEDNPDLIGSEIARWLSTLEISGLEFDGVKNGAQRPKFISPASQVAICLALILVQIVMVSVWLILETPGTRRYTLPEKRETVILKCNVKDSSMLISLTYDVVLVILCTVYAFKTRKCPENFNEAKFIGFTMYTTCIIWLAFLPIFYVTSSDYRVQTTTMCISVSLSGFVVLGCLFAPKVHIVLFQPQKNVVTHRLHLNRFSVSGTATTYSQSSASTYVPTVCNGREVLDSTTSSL
T3 sequence (P31422 23-879): as the sequence (P31422 23-879 C127A/I788A) above, with A105C, A766I counted along it
T6 sequence (P31421 19-872 C121A/A677S/A681F/A685G): as the sequence (P31421 19-872 C121A/A677S/A681F/A685G/I779A) above, with A761I counted along it
T2 sequence (P31421 19-872 C121A/I779A): as the sequence (P31421 19-872 C121A/A677S/A681F/A685G/I779A) above, with S659A, F663A, G667A counted along it
T4 sequence (P31421 19-872 I779W): as the sequence (P31421 19-872 C121A/A677S/A681F/A685G/I779A) above, with A103C, S659A, F663A, G667A, A761W counted along it
Chain of mGluR2-3xTM4 (P31421 19-872 A677S/A681F/A685G): as the sequence (P31421 19-872 C121A/A677S/A681F/A685G/I779A) above, with A103C, A761I counted along it
Chain of mGluR2 (P31421 19-872): as the sequence (P31421 19-872 C121A/A677S/A681F/A685G/I779A) above, with A103C, S659A, F663A, G667A, A761I counted along it
Chain of mGluR3-S686A (P31422 23-879 S686A): as the sequence (P31422 23-879 C127A/I788A) above, with A105C, S664A, A766I counted along it

N[C@@H](CCC(=O)O)C(=O)O [glutamate]
% Dimerization [1]: 44.05% and 34.78% and 55.93% and 49.13% and 47.14% and 45.12%
% Dimerization [2]: 54.00% and 69.67% and 69.76% and 51.05% and 59.66% and 56.67%
GIRK current amplitude ([3]; Glutamate 100 nM): 0.155 and 0.145 and 0.126 and 0.149
GIRK current amplitude ([3]; Glutamate 1 uM): 0.541 and 0.995 and 0.692
GIRK current amplitude ([3]; Glutamate 10 uM): 0.818 and 1.150 and 0.770 and 0.856 and 1.007
GIRK current amplitude ([3]; Glutamate 100 uM): 1.000
EC50 ([3]; read-out: Glutamate EC50, GIRK activation, normalized to saturating (1 mM) glutamate, unit inferred): 430 ± 100 nM
Calcium response amplitude ([4]; Glutamate 10 nM): 0.00
Calcium response amplitude ([4]; Glutamate 100 nM): 0.00
Calcium response amplitude ([4]; Glutamate 3 uM): 0.33 and 0.27
Calcium response amplitude ([4]; Glutamate 10 uM): 0.40 and 0.44 and 0.57 and 0.58
Calcium response amplitude ([4]; Glutamate 100 uM): 1.00 and 0.86
Calcium response amplitude ([4]; Glutamate 1 mM): 1.00
EC50 [4, 15]: 9590 ± 60 nM
EC50 ([5]; read-out: Glutamate EC50 (micromolar), calcium imaging, Fig 3F source data): 5.11 µM
EC50 [5, 15]: 5.12 ± 0.06 µM
GIRK current amplitude ([6]; Glutamate 10 nM): 0.000
GIRK current amplitude ([6]; Glutamate 100 uM): 0.955 and 1.148 and 1.101
GIRK current amplitude ([6]; Glutamate 1 mM): 1.000
Calcium response amplitude ([7]; Glutamate concentration 10 nM): 0.00
Calcium response amplitude ([7]; Glutamate concentration 5 uM): 0.52 and 0.53
Calcium response amplitude ([7]; Glutamate concentration 10 uM): 0.95 and 0.79 and 0.94 and 0.76
Calcium response amplitude ([7]; Glutamate concentration 100 uM): 1.00
Calcium response amplitude ([7]; Glutamate concentration 1 mM): 1.00
FRET response amplitude ([8]; Glutamate 10 nM): 0.00
FRET response amplitude ([8]; Glutamate 100 nM): 0.00
FRET response amplitude ([8]; Glutamate 3 uM): 0.13 and 0.11 and 0.12 and 0.09
FRET response amplitude ([8]; Glutamate 10 uM): 0.41 and 0.51 and 0.46 and 0.30
FRET response amplitude ([8]; Glutamate 100 uM): 0.98 and 1.00 and 0.985
FRET response amplitude ([8]; Glutamate 1 mM): 1.00
Calcium response amplitude ([9]; Glutamate 1 nM, mGluR3): 0.00
Calcium response amplitude ([9]; Glutamate 1 nM, normalized to 1 mM glutamate, replicates): 0.00
Calcium response amplitude ([9]; Glutamate 10 nM, mGluR3): 0.00
Calcium response amplitude ([9]; Glutamate 10 nM, normalized to 1 mM glutamate, replicates): 0.00
Calcium response amplitude ([9]; Glutamate 100 nM, mGluR3): 0.23
Calcium response amplitude ([9]; Glutamate 100 nM, normalized to 1 mM glutamate, replicates): 0.23
Calcium response amplitude ([9]; Glutamate 1 uM, mGluR3): 0.61 and 0.64 and 0.67 and 0.55
Calcium response amplitude ([9]; Glutamate 1 uM, normalized to 1 mM glutamate, replicates): 0.61 and 0.64 and 0.67 and 0.55
Calcium response amplitude ([9]; Glutamate 2 uM, mGluR3): 0.66 and 0.77
Calcium response amplitude ([9]; Glutamate 2 uM, normalized to 1 mM glutamate, replicates): 0.66 and 0.77
Calcium response amplitude ([9]; Glutamate 3 uM, mGluR3): 0.83 and 0.79
Calcium response amplitude ([9]; Glutamate 3 uM, normalized to 1 mM glutamate, replicates): 0.83 and 0.79
Calcium response amplitude ([9]; Glutamate 5 uM, mGluR3): 0.89 and 0.95 and 0.77
Calcium response amplitude ([9]; Glutamate 5 uM, normalized to 1 mM glutamate, replicates): 0.89 and 0.95 and 0.77
Calcium response amplitude ([9]; Glutamate 10 uM, mGluR3): 0.99 and 0.95 and 0.92
Calcium response amplitude ([9]; Glutamate 10 uM, normalized to 1 mM glutamate, replicates): 0.99 and 0.95 and 0.92
Calcium response amplitude ([9]; Glutamate 1 mM, mGluR3): 1.00
Calcium response amplitude ([9]; Glutamate 1 mM, normalized to 1 mM glutamate, replicates): 1.00
EC50 [9, 15]: 560 ± 60 nM
FRET response amplitude ([10]; Glutamate 1 nM): 0.00
FRET response amplitude ([10]; Glutamate 100 nM): 0.20 and 0.12 and 0.17 and 0.16 and 0.13 and 0.21
FRET response amplitude ([10]; Glutamate 1 uM): 0.69 and 0.42 and 0.65 and 0.66
FRET response amplitude ([10]; Glutamate 10 uM): 0.75 and 0.99 and 0.89
FRET response amplitude ([10]; Glutamate 100 uM): 0.80 and 0.96
FRET response amplitude ([10]; Glutamate 1 mM): 1.00
EC50 ([10]; read-out: Glutamate EC50, inter-TMD FRET, normalized to saturating (1 mM) glutamate, unit inferred): 560 ± 100 nM
% Dimerization [11]: 86.45% and 81.10% and 91.37% and 96.00% and 70.30% and 76.67%
FRET response amplitude ([12]; Glutamate 1 nM): 0.00
FRET response amplitude ([12]; Glutamate 10 nM): 0.00
FRET response amplitude ([12]; Glutamate 1 uM): 0.63 and 0.58
FRET response amplitude ([12]; Glutamate 3 uM): 0.78 and 0.90
FRET response amplitude ([12]; Glutamate 10 uM): 0.99 and 0.96 and 1.05
FRET response amplitude ([12]; Glutamate 1 mM): 1.00
EC50 ([12]; read-out: Glutamate EC50, LBD FRET, normalized to saturating (1 mM) glutamate, unit inferred): 670 ± 50 nM
% Dimerization ([13]; SNAP-mGluR2-C121A-3xTM4 in presence of the ligand, single replicates per experiment day): 89.26% and 88.28% and 81.34% and 81.93% and 82.70% and 80.09%
effect of ligand on dimerization (SiMPull) ([13]; saturating concentration): clear increase in dimerization
% Dimerization ([14]; SNAP-mGluR3-C127A-I788A in presence of the ligand, single replicates per experiment day): 41.49% and 28.78% and 34.64% and 33.27% and 41.72% and 37.93%
effect of ligand on dimerization (SiMPull) ([14]; saturating concentration): no difference
